Experimental findings from patent publication US20210164015A1, “ANTIMICROBIAL SUSCEPTIBILITY TESTING USING MICRODROPLETS” (Becton, Dickinson and Company, priority 2018, published 2021) are described below.

The test deals with E. coli. Put plainly: microdroplet antibiotic susceptibility testing (AST) using a fluorescent viability indicator. Type of test: cell-based. The conditions noted are these: for fluorescence intensity of microdroplets (fluorescent viability indicator): E. coli encapsulated in microdroplets. The text has this:
FIGS. 3A-3D depict results of an embodiment of microdroplet antibiotic susceptibility testing using a fluorescent viability indicator. FIG. 3A depicts change in fluorescent intensity in microdroplets at 1-hour, 2-hour, and 3-hour time points in samples without antibiotic (condition A) and samples with antibiotic at two times MIC (condition B). FIG. 3B depicts micrographs of microdroplets under the conditions of FIG. 3A.
Some embodiments provided herein relate to a first mode for determining microbial viability. A first mode for determining microbial viability is schematically depicted in FIG. 1. As described herein, a first mode for determining microbial viability includes providing a sample having microbes therein, dividing the sample into a number of portions, preparing microdroplets encapsulating microbes from the sample, either before or after the portions are formed (FIG. 1 depicts forming portions first), contacting each portion to a different concentration of an antimicrobial of interest either before or after preparing the microdroplets (FIG. 1 depicts adding an antibiotic prior to forming microdroplets), and measuring viability of the microbes by measuring a signal of microbial viability. Measuring a signal of microbial viability may be performed by obtaining a measure of microbial viability from a discrete subset of microdroplets, or a plurality of discrete subsets of microdroplets, from a population of microdroplets. The results for the measurements from discrete subsets of microdroplets at a first time point can then be combined to generate a result for the portion of the sample from which the microdroplet(s) were taken at this first time point. This process can be repeated at additional time points to determine microbial viability in that portion over time, thereby determining the susceptibility of the microbe to a given concentration of antimicrobial. Typically, it is not necessary to measure the exact same population of microdroplets at the first and subsequent time points, as long as the population of microdroplets measured at each time point are representative of the portion of the sample from which they are taken. The results from the various portions exposed to different concentrations of antimicrobial can then be used to determine the susceptibility of the microbe to the antimicrobial. […] Conversely, an increase in the measure of microbial viability over time indicates growth of microbes in the concentration of antimicrobial present in the portion of the sample from which the measurements were made. A minimum inhibitory concentration can be determined utilizing the results of antimicrobial susceptibility and/or microbe growth from the several portions of the sample exposed to different concentrations of antimicrobial. […]

`CC1(C)S[C@@H]2[C@H](NC(=O)[C@H](N)c3ccccc3)C(=O)N2[C@H]1C(=O)O` [ampicillin]: the “fluorescence intensity of microdroplets (fluorescent viability indicator)” value reads like this: (antibiotic at 2×MIC (Condition B), 1 hour incubation (t1)) “remained low”; (antibiotic at 2×MIC (Condition B), 2 hours and 3 hours incubation (t2, t3)) “remained low”. Further, the “E. coli growth in microdroplets” value (antibiotic at 2×MIC (Condition B), 2 hours and 3 hours, inferred from fluorescence intensity) is listed as “no E. coli growth”. Also, the “presence of E. coli in micrographs of microdroplets (FIG. 3D)” value (microdroplets exposed to antibiotic at 2×MIC (Condition B)) is on record as “no E. coli is present”.
